pIC50: −log10 of the molar value.
Key:
OCT2 [1] = molecular target: T1, OCT2 (Homo sapiens, UniProt O15244); test: Inhibition of OCT2-mediated [14C]metformin uptake in HEK-OCT2 cells; details: for % Inhibition of OCT2-dependent MF uptake at 200 µM (mean ± SEM) / pIC50 / % Inhibition of OCT2-dependent MF uptake at 20 µM (mean ± SEM): human, pH 7.3; for IC50 values, OCT2-mediated metformin transport (in words): potent inhibitors, confirmed previous findings [19]-[21]
OCT2 [2] = molecular target: T1, OCT2; test: Inhibition of OCT2-mediated [3H]MPP+ uptake in HEK-OCT2 cells; details: for % Inhibition of OCT2-dependent MPP+ uptake at 20 µM (mean ± SEM): test drug 20 µM
OCT2 [3] = test system: OCT2; design: method as in earlier work; details: drug 20 μM; HEK 293 cells overexpressing OCT2; ref 7 (Kido et al.); cited from earlier work
[4] = ref 16 (Regenthal et al.), cited from earlier work; for Cmax,u: Cmax of unbound drug in humans; for Cmax: maximum steady-state plasma concentration in humans
OCT2 [5] = details: cited from earlier work
[6] = cited from earlier work
OCT2 [7] = molecular target: T1, OCT2; test: Time-dependent substrate uptake into HEK-OCT2 and vector control cells; format: cell-based; design: expressed in transfected cells; host or cells: HEK 293 cells, stably transfected (HEK-OCT2); vector control HEK-VC; details: metformin 1000 μM; for Time until OCT2-mediated uptake reached steady-state: HEK-OCT2 cells
Experimental: For the transport assays HEK cell lines stably transfected with human OCT2 (HEK-OCT2) or the vector only (HEK-VC) were used. The HEK-OCT2 cell line was established and characterized previously. HEK-OCT2 and HEK-VC cells were seeded in poly-D-lysine (Sigma Aldrich, Taufkirchen, Germany) coated 48-well-plates at a density of 1.2 x 10^5 cells/well. […] In a total incubation volume of 125 μL the final concentrations of the test drugs were 20 or 200 μM. […] Uptake was stopped by washing the cells three times with ice-cold uptake buffer. Afterwards, cells were lysed with 5 mM Tris buffer (pH 7.3) containing 0.1% Triton X-100. The intracellular accumulation of radioactivity was determined by liquid scintillation counting (PerkinElmer, Rodgau-Jügesheim, Germany) and protein concentration of each lysate was measured with bicinchonic acid assay (BCA Protein Assay Kit, Thermo Fisher Scientific, Waltham, MA, USA). We performed two to eight experiments each on at least two separate days, i.e., n = 4–16. […] The percentage of uptake inhibition was calculated as: Inhibition (%) = 100 –(V / V 0 * 100), where V and V 0 are the net uptake rates with and without test drug.
Data are presented as the mean ± standard error (4–8 experiments each on two to four separate days, i.e., n = 8–29).

[8] = MPP+ 50 μM, 3 min, net uptake HEK-OCT2 minus HEK-VC
[9] = test drug 200 µM, MPP+ 50 μM, 3 min, net uptake HEK-OCT2 minus HEK-VC
[10] = coadministration of lansoprazole
[11] = coadministration with pantoprazole

T1 sequence (O15244 whole entry): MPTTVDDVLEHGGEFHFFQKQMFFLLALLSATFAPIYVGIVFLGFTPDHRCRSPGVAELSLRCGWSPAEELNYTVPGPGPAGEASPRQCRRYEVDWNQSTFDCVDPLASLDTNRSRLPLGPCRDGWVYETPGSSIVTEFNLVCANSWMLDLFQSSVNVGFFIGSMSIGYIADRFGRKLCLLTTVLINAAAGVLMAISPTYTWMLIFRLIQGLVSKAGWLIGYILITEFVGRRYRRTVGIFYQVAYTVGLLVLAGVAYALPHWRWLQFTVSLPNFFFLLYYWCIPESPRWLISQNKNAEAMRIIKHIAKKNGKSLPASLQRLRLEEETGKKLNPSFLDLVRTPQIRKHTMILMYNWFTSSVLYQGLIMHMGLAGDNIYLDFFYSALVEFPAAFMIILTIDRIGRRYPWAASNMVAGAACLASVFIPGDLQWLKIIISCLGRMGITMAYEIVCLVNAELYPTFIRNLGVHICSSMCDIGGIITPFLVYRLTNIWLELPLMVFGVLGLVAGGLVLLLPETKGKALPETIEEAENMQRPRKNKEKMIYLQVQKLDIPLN

With `CN(C)CCC=C1c2ccccc2CCc2ccccc21` [Amitriptyline] the “Cmax,u / IC50” value (OCT2 [1]) was 0.08, the “% Inhibition of OCT2-dependent MF uptake at 200 µM (mean ± SEM)” value (OCT2 [1]) was 101.7 ± 2.2% and the pIC50 (OCT2 [1]) was 6.29. For the same compound, the “IC50 values, OCT2-mediated metformin transport (in words)” value (“IC50 values” below) (OCT2 [1]) was “low micromolar range”, the “% Inhibition of OCT2-dependent MPP+ uptake at 20 µM (mean ± SEM)” value (OCT2 [2]; [8]) was 58.4 ± 2.8% and the “% Inhibition of OCT2-dependent MPP+ uptake at 20 µM (mean ± SEM)” value (OCT2 [2]; MPP+ 50 μM, 3 min, net uptake HEK-OCT2 minus HEK-VC, listed as amitriptyline) was “more than 50%”. The “% Inhibition of OCT2-dependent MPP+ uptake at 200 µM (mean ± SEM)” value (OCT2 [2]; [9]) was 97.8 ± 0.6%, the “Inhibition of OCT2-mediated ASP+ uptake” value (OCT2 [3]) was “more than 50%” and the “Cmax,u” value [4] was 40 nM. For the same compound, the Cmax [4] was 1100 nM.

For `CN/C(=N/CCSCc1nc[nH]c1C)NC#N` [Cimetidine], the “Affinity for MATEs compared with OCT2” value (OCT2 [5]) is given as “higher affinity for MATEs than for OCT2” and the “Inhibitor of OCT2 (in words)” value (OCT2 [5]) is given as “rather weak inhibitor”.

For `CN(C)CCCN1c2ccccc2CCc2ccc(Cl)cc21` [Clomipramine], the “% Inhibition of OCT2-dependent MF uptake at 200 µM (mean ± SEM)” value (OCT2 [1]) was 99.5 ± 3.7, the “% Inhibition of OCT2-dependent MPP+ uptake at 20 µM (mean ± SEM)” value (OCT2 [2]; [8]) was 90.3 ± 1.5% and the “% Inhibition of OCT2-dependent MPP+ uptake at 200 µM (mean ± SEM)” value (OCT2 [2]; [9]) was 98.8 ± 3.0%. The “Inhibition of OCT2-mediated ASP+ uptake” value (OCT2 [3]) was “more than 50%”.

For `CN(C)CCC=C1c2ccccc2COc2ccccc21` [Doxepin], the “% Inhibition of OCT2-dependent MF uptake at 200 µM (mean ± SEM)” value (OCT2 [1]) is given as 99.3 ± 0.7, the pIC50 (OCT2 [1]) is given as 6.60 and the “Inhibition of OCT2-mediated ASP+ uptake” value (OCT2 [3]) is given as “more than 50%”. For the same compound, the “Cmax,u” value [4] was 250 nM and the Cmax [4] was 1300 nM.

For `Cc1c(OCC(F)(F)F)ccnc1C[S+]([O-])c1nc2ccccc2[nH]1` (centres unmarked) [Lansoprazole], the “% Inhibition of OCT2-dependent MF uptake at 20 µM (mean ± SEM)” value (OCT2 [1]) was 87.7 ± 1.6, the “% Inhibition of OCT2-dependent MF uptake at 200 µM (mean ± SEM)” value (OCT2 [1]) was 103.0 ± 2.7 and the pIC50 (OCT2 [1]) was 5.48. For the same compound, the “IC50 values” value (OCT2 [1]) was “low micromolar range”, the “% Inhibition of OCT2-dependent MPP+ uptake at 20 µM (mean ± SEM)” value (OCT2 [2]; [8]) was 22.1 ± 5.3% and the “% Inhibition of OCT2-dependent MPP+ uptake at 200 µM (mean ± SEM)” value (OCT2 [2]; [9]) was 90.1 ± 1.8%. For the same compound, the “Decrease of metformin renal clearance” value [6, 10] was 13%, the “Increase of AUC of metformin” value [6, 10] was 17% and the “Increase of Cmax of metformin” value [6, 10] was 15%. For the same compound, the “Cmax,u” value [4] was 1200 nM and the Cmax [4] was 6000 nM.

For `C[n+]1ccc(-c2ccccc2)cc1` [MPP^+, 1-methyl-4-phenylpyridinium], the “Uptake ratio OCT2 cells vs. vector control cells” value (OCT2 [7]; MPP+ 50 μM, 3 min, no inhibitor) was 3.2 and the “Time until OCT2-mediated uptake reached steady-state” value (OCT2 [7]; MPP+ 50 μM) was “approximately 15 min”.

For `CN(C)C(=N)N=C(N)N` [Metformin], the “Time until OCT2-mediated uptake reached steady-state” value (OCT2 [7]; MPP+ 50 μM) was “approximately 15 min”, the “Uptake of metformin in vector control cells” value (OCT2 [7]; 3 min, HEK-VC, no inhibitor) was 227 ± 22.1 pmol/mg/min and the “Uptake of metformin in HEK-OCT2 cells” value (OCT2 [7]; 3 min, no inhibitor) was 5946 ± 294.0 pmol/mg/min.

For `COc1ccc2[nH]c([S+]([O-])Cc3ncc(C)c(OC)c3C)nc2c1` (centres unmarked) [Omeprazole], the “% Inhibition of OCT2-dependent MF uptake at 200 µM (mean ± SEM)” value (OCT2 [1]) was 107.4 ± 4.3, the “IC50 values” value (OCT2 [1]) was “low micromolar range” and the “% Inhibition of OCT2-dependent MPP+ uptake at 20 µM (mean ± SEM)” value (OCT2 [2]; [8]) was 56.0 ± 4.0%. The “% Inhibition of OCT2-dependent MPP+ uptake at 20 µM (mean ± SEM)” value (OCT2 [2]; MPP+ 50 μM, 3 min, net uptake HEK-OCT2 minus HEK-VC, listed as omeprazole) was “more than 50%”, the “% Inhibition of OCT2-dependent MPP+ uptake at 200 µM (mean ± SEM)” value (OCT2 [2]; [9]) was 93.0 ± 0.9% and the “Inhibition of OCT2-mediated ASP+ uptake” value (OCT2 [3]) was “more than 50%”.

With `COc1ccnc(C[S+]([O-])c2nc3ccc(OC(F)F)cc3[nH]2)c1OC` (centres unmarked) [Pantoprazole] the “% Inhibition of OCT2-dependent MF uptake at 200 µM (mean ± SEM)” value (OCT2 [1]) was 98.9 ± 0.6, the pIC50 (OCT2 [1]) was 6.25 and the “% Inhibition of OCT2-dependent MPP+ uptake at 200 µM (mean ± SEM)” value (OCT2 [2]; human, pH 7.3) was 101.7 ± 4.4. For the same compound, the “AUC for metformin greater following coadministration” value [6, 11] was 15%, the “Cmax for metformin greater following coadministration” value [6, 11] was 15% and the “Cmax,u” value [4] was 230 nM. The Cmax [4] was 11400 nM.

For `N[C@@H](CC(=O)N1CCn2c(nnc2C(F)(F)F)C1)Cc1cc(F)c(F)cc1F` [Sitagliptin], the “% Inhibition of OCT2-dependent MF uptake at 20 µM (mean ± SEM)” value (OCT2 [1]) was 85.9 ± 1.1, the “% Inhibition of OCT2-dependent MF uptake at 200 µM (mean ± SEM)” value (OCT2 [1]) was 97.5 ± 0.1 and the pIC50 (OCT2 [1]) was 5.13. The “IC50 values” value (OCT2 [1]) was “low micromolar range”, the “% Inhibition of OCT2-dependent MPP+ uptake at 20 µM (mean ± SEM)” value (OCT2 [2]; [8]) was -8.2 ± 7.8% and the “% Inhibition of OCT2-dependent MPP+ uptake at 200 µM (mean ± SEM)” value (OCT2 [2]; [9]) was 22.7 ± 6.0%. The “Effect on steady-state pharmacokinetics of either agent” value ([6]; co-administration of sitagliptin and metformin, patients with type 2 diabetes) was “did not meaningfully alter”, the “Cmax,u” value [4] was 1500 nM and the Cmax [4] was 2300 nM.

In the case of `CCCc1nc2c(C)cc(-c3nc4ccccc4n3C)cc2n1Cc1ccc(-c2ccccc2C(=O)O)cc1` [Telmisartan], the “% Inhibition of OCT2-dependent MF uptake at 200 µM (mean ± SEM)” value (OCT2 [1]) is listed as 99.2 ± 0.2, the “% Inhibition of OCT2-dependent MPP+ uptake at 200 µM (mean ± SEM)” value (OCT2 [2]; human, pH 7.3) is listed as 93.3 ± 2.8 and the “Inhibition of OCT2-mediated ASP+ uptake” value (OCT2 [3]) is listed as “more than 50%”.

With `CC(CN(C)C)CN1c2ccccc2CCc2ccccc21` (centres unmarked) [Trimipramine] the “% Inhibition of OCT2-dependent MF uptake at 200 µM (mean ± SEM)” value (OCT2 [1]) was 100.0 ± 0.8, the pIC50 (OCT2 [1]) was 6.36 and the “% Inhibition of OCT2-dependent MPP+ uptake at 20 µM (mean ± SEM)” value (OCT2 [2]; [8]) was 51.0 ± 10.2%. For the same compound, the “% Inhibition of OCT2-dependent MPP+ uptake at 20 µM (mean ± SEM)” value (OCT2 [2]; MPP+ 50 μM, 3 min, net uptake HEK-OCT2 minus HEK-VC, listed as trimipramine) was “more than 50%”, the “% Inhibition of OCT2-dependent MPP+ uptake at 200 µM (mean ± SEM)” value (OCT2 [2]; [9]) was 98.6 ± 1.2% and the “Inhibition of OCT2-mediated ASP+ uptake” value (OCT2 [3]) was “more than 50%”. For the same compound, the “Cmax,u” value [4] was 60 nM and the Cmax [4] was 610 nM.

In the case of `O=C(O[C@H]1C[C@H]2CC[C@@H](C1)[N+]21CCCC1)C(O)(c1ccccc1)c1ccccc1` [Trospium chloride], the “% Inhibition of OCT2-dependent MF uptake at 200 µM (mean ± SEM)” value (OCT2 [1]) was 98.8 ± 0.4, the pIC50 (OCT2 [1]) was 7.15 and the “% Inhibition of OCT2-dependent MPP+ uptake at 20 µM (mean ± SEM)” value (OCT2 [2]; [8]) was 83.2 ± 2.2%. The “% Inhibition of OCT2-dependent MPP+ uptake at 200 µM (mean ± SEM)” value (OCT2 [2]; [9]) was 96.7 ± 0.7%, the “Effect on metformin renal clearance and steady-state pharmacokinetics” value ([6]; trospium chloride coadministration, healthy volunteers) was “did not alter” and the “Cmax,u” value [4] was 10 nM. For the same compound, the Cmax [4] was 30 nM.

Reference: publication PMC4556614 (PLoS ONE, 2015)
